According to publication PMC4702177, “Discovering new mTOR inhibitors for cancer treatment through virtual screening methods and in vitro assays” (Scientific Reports, 2016):
Values joined by “and” are separate entries in the source; they are usually repeats but may differ in a detail not shown here. Equal entries are not always repeated. “Also recorded” adds a separate entry of the source.

Columns and labels:
[1] = target: T1, human recombinant mTOR kinase (Homo sapiens, UniProt P42345); test: In vitro mTOR kinase assay (K-LISA ELISA, p70S6K-GST substrate); type: biochemical
T1 construct: a purified recombinant mTOR fragment (amino acids 1360-2549, CBA104-1KIT from Calbiochem); purchased Calbiochem CBA104-1KIT
Protocol: The mTOR kinase inhibitory activities of the 41 final virtual hits were determined using an ELISA-based activity assays that utilize a p70S6K-GST fusion protein as a specific mTOR substrate (see the Experimental Section for details). For the initial screening, all the activities were measured at a concentration of 10 μM.
mTOR activity was evaluated using a purified recombinant mTOR fragment (amino acids 1360-2549, CBA104-1KIT from Calbiochem). The K-LISA^TM mTOR activity kit is an ELISA-based activity assay for detection of phosphorylation of a p70S6K-GST fusion protein (a specific mTOR substrate) in the presence of ATP. The assay was optimized for use with mTOR as described in the Calbiochem protocol. The assay takes place in 96-well plates and can be divided into two phases: an mTOR kinase reaction phase and phosphorylated substrate detection phase.
In the kinase reaction phase, the following components were mixed in the same well: 5 μL of a solution containing 5 μg/mL mTOR substrate (recombinant p70S6K-GST fusion protein) in Tris-buffered saline (1 L TBS: sodium chloride 8.8 g, Tris Base 2.4 g, HCl 13 mL, Tween-20 10 ml, ddH2O), 5 μL ATP solution containing 20 mM ATP diluted in kinase assay buffer (pH 7.4, 0.01% Tween 20, 1 mM EDTA, 10 mM MgCl2, 1 mM DTT), […] of human recombinant mTOR kinase at the optimal concentration (80 ng/well) diluted in kinase assay buffer, and 5 μL of serial dilutions of inhibitors diluted in DMSO and kinase assay buffer. For each inhibitor concentration, the assay was run in triplicate. The final reaction volume was 100 μL per well, and samples incubated for 30 min at room temperature.
The kinase reaction was stopped by adding 10 μL kinase stop solution to each well. The phosphorylated substrate was detected using Anti-p70S6K-pT389 antibody, followed by detection with HRP-Antibody Conjugate and TMB Substrate. Then, ELISA stop solution was added to each well to stop the reaction, and relative mTOR inhibition activity was determined by reading the absorbance at dual wavelengths of 450/540 nm.

HeLa cells = test: Cell cycle analysis by flow cytometry; type: cell-based, human; conditions: 2.74 and 5.48 μM, 24 hours
Protocol: To further explore the mechanism of cell growth inhibition by compound 17, we examined the effects of compound 17 on cell cycle distribution in HeLa cells using flow cytometry.
Cells cycle distribution was analyzed as previously described. In brief, HeLa cells (1.5 × 10^4/well) seeded in six-well plates were incubated with compound 17 for 24 h. Then, the cells were collected, washed twice with phosphate-buffered saline (PBS), and fixed in 70% cold ethanol at −20 °C overnight. Finally, the samples were stained with 50 μg/mL propidium iodide and 30 μg/mL of RNase A at 37 °C for 1 h. DNA content data were acquired using CELLQuest software on a flow cytometer (FACSCalibur; Becton Dickinson, Mountain View, CA, USA).

AKT1 (PKB alpha) = AKT1 (PKB alpha) (Homo sapiens, UniProt P31749); test: SelectScreen kinase profiling; type: biochemical; conditions: mean ± SD of triplicate
Text: (§1) To characterize the kinase selectivity of compound 17, we profiled its ability to bind to a panel of 24 structurally related kinases using the SelectScreen Kinase Profiling Service (Life Technologies Corporation, Madison, WI).

CDK1/cyclin B = CDK1/cyclin B (Homo sapiens, UniProt P06493); test: SelectScreen kinase profiling; type: biochemical; conditions: mean ± SD of triplicate
Text: as §1

MARK1 (MARK) = MARK1 (MARK) (Homo sapiens, UniProt Q9P0L2); test: SelectScreen kinase profiling; type: biochemical; conditions: mean ± SD of triplicate
Chain of MARK1 (MARK) (Q9P0L2 whole entry): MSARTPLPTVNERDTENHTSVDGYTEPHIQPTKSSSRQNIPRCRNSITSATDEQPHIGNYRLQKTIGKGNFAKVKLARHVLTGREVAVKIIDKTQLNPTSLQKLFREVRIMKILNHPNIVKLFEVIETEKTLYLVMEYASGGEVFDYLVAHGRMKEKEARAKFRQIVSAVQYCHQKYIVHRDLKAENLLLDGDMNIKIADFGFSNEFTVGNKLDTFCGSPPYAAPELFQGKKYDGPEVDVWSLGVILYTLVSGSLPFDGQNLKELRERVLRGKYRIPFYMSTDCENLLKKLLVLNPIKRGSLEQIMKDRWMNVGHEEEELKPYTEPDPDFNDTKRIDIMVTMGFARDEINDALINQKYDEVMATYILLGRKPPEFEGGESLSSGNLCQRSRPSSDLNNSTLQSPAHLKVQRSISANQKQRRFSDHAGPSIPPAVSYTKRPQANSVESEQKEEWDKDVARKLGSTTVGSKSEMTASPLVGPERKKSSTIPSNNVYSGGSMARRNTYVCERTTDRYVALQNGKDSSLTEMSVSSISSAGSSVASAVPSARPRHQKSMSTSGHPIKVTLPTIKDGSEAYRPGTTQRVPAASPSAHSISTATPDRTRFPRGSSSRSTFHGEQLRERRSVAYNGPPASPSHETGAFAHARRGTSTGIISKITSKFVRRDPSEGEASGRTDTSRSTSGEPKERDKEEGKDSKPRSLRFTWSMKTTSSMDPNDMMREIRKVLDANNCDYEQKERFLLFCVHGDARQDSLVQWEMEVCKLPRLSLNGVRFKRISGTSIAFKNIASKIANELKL
Text: as §1

PRKCB2 (PKC beta II) = PRKCB2 (PKC beta II) (Homo sapiens, UniProt P05771); test: SelectScreen kinase profiling; type: biochemical; conditions: mean ± SD of triplicate
Text: as §1

IKBKB (IKK beta) = IKBKB (IKK beta) (Homo sapiens, UniProt O14920); test: SelectScreen kinase profiling; type: biochemical; conditions: mean ± SD of triplicate
Text: as §1

PDK1 = PDK1 (Homo sapiens, UniProt O15530); test: SelectScreen kinase profiling; type: biochemical; conditions: mean ± SD of triplicate
Text: as §1

PRKCA (PKC alpha) = PRKCA (PKC alpha) (Homo sapiens, UniProt P17252); test: SelectScreen kinase profiling; type: biochemical; conditions: mean ± SD of triplicate
Text: as §1

DNA-PK = DNA-PK (Homo sapiens, UniProt P78527); test: SelectScreen kinase profiling; type: biochemical; conditions: mean ± SD of triplicate
Text: as §1

AKT2 (PKB beta) = AKT2 (PKB beta) (Homo sapiens, UniProt P31751); test: SelectScreen kinase profiling; type: biochemical; conditions: mean ± SD of triplicate
Chain of AKT2 (PKB beta) (P31751 whole entry): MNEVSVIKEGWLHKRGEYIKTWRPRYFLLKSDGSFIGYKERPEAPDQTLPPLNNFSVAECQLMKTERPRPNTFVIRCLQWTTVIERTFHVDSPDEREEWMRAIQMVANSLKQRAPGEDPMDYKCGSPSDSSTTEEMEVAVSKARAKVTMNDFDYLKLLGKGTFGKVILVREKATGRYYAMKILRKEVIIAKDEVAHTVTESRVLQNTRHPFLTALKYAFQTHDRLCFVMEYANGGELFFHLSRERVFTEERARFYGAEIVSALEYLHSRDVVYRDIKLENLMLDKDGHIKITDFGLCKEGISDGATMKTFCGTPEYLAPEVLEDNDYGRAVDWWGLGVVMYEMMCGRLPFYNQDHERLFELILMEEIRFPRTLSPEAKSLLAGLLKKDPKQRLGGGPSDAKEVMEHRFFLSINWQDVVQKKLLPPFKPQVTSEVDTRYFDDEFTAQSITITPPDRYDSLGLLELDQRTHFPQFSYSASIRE
Text: as §1

CDK2/cyclin A = CDK2/cyclin A (Homo sapiens, UniProt P24941); test: SelectScreen kinase profiling; type: biochemical; conditions: mean ± SD of triplicate
Text: as §1

AMPK A2/B1/G1 = AMPK A2/B1/G1 (Homo sapiens, UniProt P54646); test: SelectScreen kinase profiling; type: biochemical; conditions: mean ± SD of triplicate
Chain of AMPK A2/B1/G1 (P54646 whole entry): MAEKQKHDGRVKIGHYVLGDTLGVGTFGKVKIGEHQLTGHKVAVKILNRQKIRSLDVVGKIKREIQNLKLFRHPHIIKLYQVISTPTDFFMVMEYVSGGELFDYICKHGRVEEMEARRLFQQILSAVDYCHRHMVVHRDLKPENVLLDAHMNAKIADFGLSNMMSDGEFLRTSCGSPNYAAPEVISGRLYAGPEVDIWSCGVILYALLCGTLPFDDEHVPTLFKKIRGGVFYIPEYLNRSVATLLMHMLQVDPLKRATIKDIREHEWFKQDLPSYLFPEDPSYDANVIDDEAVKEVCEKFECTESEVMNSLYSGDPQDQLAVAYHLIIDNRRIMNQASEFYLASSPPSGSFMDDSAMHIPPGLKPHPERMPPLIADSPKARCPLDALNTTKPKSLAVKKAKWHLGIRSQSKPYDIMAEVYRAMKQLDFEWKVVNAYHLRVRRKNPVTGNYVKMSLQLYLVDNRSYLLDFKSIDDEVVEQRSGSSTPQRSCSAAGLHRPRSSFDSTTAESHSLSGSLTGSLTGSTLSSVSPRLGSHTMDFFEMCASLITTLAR
Chain of AMPK A2/B1/G1 (Q9Y478 whole entry partner): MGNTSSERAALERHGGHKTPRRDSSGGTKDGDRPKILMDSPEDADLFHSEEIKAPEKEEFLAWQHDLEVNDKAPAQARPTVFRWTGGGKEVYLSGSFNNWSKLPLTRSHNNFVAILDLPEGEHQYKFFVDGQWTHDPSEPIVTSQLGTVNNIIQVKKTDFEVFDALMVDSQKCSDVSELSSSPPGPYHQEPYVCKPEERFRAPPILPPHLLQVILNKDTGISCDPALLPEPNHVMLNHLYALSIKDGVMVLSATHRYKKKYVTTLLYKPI
Chain of AMPK A2/B1/G1 (P54619 whole entry partner): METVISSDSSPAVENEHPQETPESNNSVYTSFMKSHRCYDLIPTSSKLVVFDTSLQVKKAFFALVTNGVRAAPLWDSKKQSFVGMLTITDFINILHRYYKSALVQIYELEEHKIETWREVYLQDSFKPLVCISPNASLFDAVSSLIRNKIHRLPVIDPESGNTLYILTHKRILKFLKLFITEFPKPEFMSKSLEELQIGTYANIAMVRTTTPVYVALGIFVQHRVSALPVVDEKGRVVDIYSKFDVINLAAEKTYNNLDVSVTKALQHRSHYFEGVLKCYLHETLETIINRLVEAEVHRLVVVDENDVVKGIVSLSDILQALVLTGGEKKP
Text: as §1

RPS6KB1 (p70S6K) = RPS6KB1 (p70S6K) (Homo sapiens, UniProt P23443); test: SelectScreen kinase profiling; type: biochemical; conditions: mean ± SD of triplicate
Text: as §1

PIK3C3 (hVPS34) = PIK3C3 (hVPS34) (Homo sapiens, UniProt Q8NEB9); test: SelectScreen kinase profiling; type: biochemical; conditions: mean ± SD of triplicate
Text: as §1

PIK3CG (p110 gamma) = PIK3CG (p110 gamma) (Homo sapiens, UniProt P48736); test: SelectScreen kinase profiling; type: biochemical; conditions: mean ± SD of triplicate
Text: as §1

PRKCD (PKC delta) = PRKCD (PKC delta) (Homo sapiens, UniProt Q05655); test: SelectScreen kinase profiling; type: biochemical; conditions: mean ± SD of triplicate
Chain of PRKCD (PKC delta) (Q05655 whole entry): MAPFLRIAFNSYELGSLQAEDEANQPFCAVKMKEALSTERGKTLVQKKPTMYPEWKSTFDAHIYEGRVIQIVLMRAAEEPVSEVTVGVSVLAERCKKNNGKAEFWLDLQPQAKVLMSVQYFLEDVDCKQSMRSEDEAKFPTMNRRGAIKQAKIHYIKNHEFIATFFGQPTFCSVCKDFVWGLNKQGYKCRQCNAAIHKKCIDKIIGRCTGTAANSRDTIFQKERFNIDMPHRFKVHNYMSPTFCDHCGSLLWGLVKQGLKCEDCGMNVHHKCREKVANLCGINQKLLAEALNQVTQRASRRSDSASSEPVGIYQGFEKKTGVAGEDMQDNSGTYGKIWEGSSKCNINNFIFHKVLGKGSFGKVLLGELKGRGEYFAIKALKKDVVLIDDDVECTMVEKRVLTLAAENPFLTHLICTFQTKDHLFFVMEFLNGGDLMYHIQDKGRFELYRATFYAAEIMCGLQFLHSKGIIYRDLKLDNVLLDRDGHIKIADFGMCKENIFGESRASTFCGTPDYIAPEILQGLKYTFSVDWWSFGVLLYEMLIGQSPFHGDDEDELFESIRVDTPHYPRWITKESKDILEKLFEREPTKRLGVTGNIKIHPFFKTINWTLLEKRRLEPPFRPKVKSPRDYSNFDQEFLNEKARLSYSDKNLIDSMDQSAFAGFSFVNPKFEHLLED
Text: as §1

PI4KB (PI4K beta) = PI4KB (PI4K beta) (Homo sapiens, UniProt Q9UBF8); test: SelectScreen kinase profiling; type: biochemical; conditions: mean ± SD of triplicate
Text: as §1

FRAP1 (mTOR) = FRAP1 (mTOR) (Homo sapiens, UniProt P42345); test: SelectScreen kinase profiling; type: biochemical; conditions: mean ± SD of triplicate
Text: as §1

[2] = target: PIK3CA/PIK3R1 (p110 alpha/p85 alpha) (Homo sapiens, UniProt P42336); test: SelectScreen kinase profiling; type: biochemical; conditions: mean ± SD of triplicate
Chain of PIK3CA/PIK3R1 (p110 alpha/p85 alpha) (P42336 whole entry): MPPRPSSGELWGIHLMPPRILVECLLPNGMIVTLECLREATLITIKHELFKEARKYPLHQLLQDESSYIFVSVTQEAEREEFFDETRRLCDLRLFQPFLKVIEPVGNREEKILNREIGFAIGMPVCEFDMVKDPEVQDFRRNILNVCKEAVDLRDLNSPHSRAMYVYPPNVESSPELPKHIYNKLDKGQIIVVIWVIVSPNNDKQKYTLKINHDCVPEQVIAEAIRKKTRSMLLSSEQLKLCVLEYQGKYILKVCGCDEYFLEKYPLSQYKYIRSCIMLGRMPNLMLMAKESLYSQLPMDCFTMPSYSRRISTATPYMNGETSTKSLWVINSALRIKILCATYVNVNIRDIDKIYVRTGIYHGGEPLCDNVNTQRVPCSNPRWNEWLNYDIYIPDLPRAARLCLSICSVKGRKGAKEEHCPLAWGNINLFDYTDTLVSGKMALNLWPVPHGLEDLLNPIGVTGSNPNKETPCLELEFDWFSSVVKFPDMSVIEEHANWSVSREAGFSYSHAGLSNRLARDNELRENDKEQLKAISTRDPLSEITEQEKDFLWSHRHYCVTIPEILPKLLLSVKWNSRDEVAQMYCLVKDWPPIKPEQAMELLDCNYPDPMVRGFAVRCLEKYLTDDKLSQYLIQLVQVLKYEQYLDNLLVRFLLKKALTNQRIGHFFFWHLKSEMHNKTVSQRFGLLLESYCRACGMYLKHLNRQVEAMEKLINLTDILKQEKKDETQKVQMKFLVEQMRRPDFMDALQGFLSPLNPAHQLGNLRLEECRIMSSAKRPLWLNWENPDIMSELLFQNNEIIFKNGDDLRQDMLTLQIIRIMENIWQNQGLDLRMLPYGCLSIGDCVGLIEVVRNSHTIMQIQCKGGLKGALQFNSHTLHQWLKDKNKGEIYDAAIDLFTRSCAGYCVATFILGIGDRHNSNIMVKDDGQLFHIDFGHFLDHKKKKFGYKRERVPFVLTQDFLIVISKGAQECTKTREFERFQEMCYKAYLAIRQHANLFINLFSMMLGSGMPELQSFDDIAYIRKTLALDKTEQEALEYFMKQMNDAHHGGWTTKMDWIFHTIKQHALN
Chain of PIK3CA/PIK3R1 (p110 alpha/p85 alpha) (P27986 whole entry partner): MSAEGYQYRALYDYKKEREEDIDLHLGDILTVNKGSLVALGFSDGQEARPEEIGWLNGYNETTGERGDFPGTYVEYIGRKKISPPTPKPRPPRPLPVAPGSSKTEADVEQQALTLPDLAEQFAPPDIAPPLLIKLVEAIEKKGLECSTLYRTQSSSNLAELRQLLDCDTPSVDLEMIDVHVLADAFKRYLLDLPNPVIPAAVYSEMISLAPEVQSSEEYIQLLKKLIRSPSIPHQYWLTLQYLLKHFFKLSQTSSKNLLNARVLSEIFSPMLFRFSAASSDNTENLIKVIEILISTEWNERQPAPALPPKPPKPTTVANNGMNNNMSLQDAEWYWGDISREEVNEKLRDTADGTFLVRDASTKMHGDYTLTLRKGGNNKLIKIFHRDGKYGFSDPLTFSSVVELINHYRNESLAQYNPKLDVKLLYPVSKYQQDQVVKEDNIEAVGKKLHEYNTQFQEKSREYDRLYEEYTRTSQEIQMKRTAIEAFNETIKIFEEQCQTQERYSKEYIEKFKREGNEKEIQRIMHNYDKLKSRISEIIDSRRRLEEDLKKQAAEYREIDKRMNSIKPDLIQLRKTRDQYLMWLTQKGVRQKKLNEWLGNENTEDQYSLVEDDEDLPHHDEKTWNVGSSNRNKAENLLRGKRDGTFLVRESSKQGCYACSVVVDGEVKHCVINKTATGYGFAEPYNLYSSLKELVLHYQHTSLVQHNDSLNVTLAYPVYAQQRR
Text: as §1

AMPK A1/B1/G1 = AMPK A1/B1/G1 (Homo sapiens, UniProt Q13131); test: SelectScreen kinase profiling; type: biochemical; conditions: mean ± SD of triplicate
Text: as §1

- inhibition at 10 µM ([1]; 10 μM, triplicate measurements): 61%
- IC50 ([1]; mean ± SD of triplicate measurements): < 10 µM and 7.59 µM
- inhibition at 10 µM (AKT1 (PKB alpha)): 22.7 ± 9.34%
- inhibition at 10 µM (CDK1/cyclin B): 3.09 ± 2.31%
- inhibition at 10 µM (MARK1 (MARK)): -12.2 ± 4.24%
- inhibition at 10 µM (PRKCB2 (PKC beta II)): 17.7 ± 4.98%
- inhibition at 10 µM (IKBKB (IKK beta)): 11.7 ± 1.62%
- inhibition at 10 µM (PDK1): 3.94 ± 3.24%
- inhibition at 10 µM (PRKCA (PKC alpha)): 9.84 ± 3.05%
- inhibition at 10 µM (DNA-PK): 61.9 ± 6.43%
- inhibition at 10 µM (AKT2 (PKB beta)): 33.6 ± 3.23%
- inhibition at 10 µM (CDK2/cyclin A): -1.54 ± 1.35%
- inhibition at 10 µM (AMPK A2/B1/G1): 33.8 ± 4.29%
- inhibition at 10 µM (RPS6KB1 (p70S6K)): -1.25 ± 1.53%
- inhibition at 10 µM (PIK3C3 (hVPS34)): -6.75 ± 8.78%
- inhibition at 10 µM (PIK3CG (p110 gamma)): 40.9 ± 1.19%
- inhibition at 10 µM (PRKCD (PKC delta)): -10.5 ± 9.55%
- inhibition at 10 µM (PI4KB (PI4K beta)): 31.8 ± 1.18%
- inhibition at 10 µM (FRAP1 (mTOR)): 16.9 ± 4.99%
- inhibition at 10 µM [2]: 56.4 ± 4.16%
- inhibition at 10 µM (AMPK A1/B1/G1): 17 ± 3.47%
Compound: Nc1nn2c(nc(N)c3c(N)n[nH]c32)c1/N=N/c1ccccc1 [Compound 17]
- cell cycle distribution (HeLa cells): arrests the cell cycle of HeLa at the G1/G0-phase; also recorded: induced an arrest of cell cycle at the G1/G0-phase
